According to US20240000811A1, “INOSITOL HEXAKISPHOSPHATE ANALOGUES FOR TREATMENT OF CALCIFICATION ASSOCIATED KIDNEY DISEASES” (INOSITEC AG, priority 2020, published 2024):

Key:
[1] = tested on: RPTEC/TERT 1 human proximal tubule cells; test: Imaging assay: CaP adhesion/deposition and cellular changes on RPTEC monolayers treated with 5/7 mM Ca/P; format: cell-based
Method: RPTEC/TERT 1 human proximal tubule cells (RPTEC) were cultured in T75 tissue culture flasks using ProxUp basal medium mixed with ProxUp supplements at 37° C. and 5% CO2 according to manufacturer's recommendations. Cells were used up to passage 30 and regularly tested for Mycoplasma infections. For experiments, RPTEC were cultured in 24-well plates at a seeding density of 150′000 cells/cm^2. Cell viability assessment and cell counting before seeding was performed using an automated cell counter (BioRad TC 20, Hercules, CA, USA).
For the comparison of selected IP6 analogues, ProxUp basal medium was prepared with the selected inhibitor and added to each well. Then, CaP precipitation was induced by direct addition of first, phosphate and second, calcium. Final concentrations of 7 mM phosphate and 5 mM calcium were used. Cells were incubated for 24 h at 37° C. and 5% CO2. Spiked medium was removed, and cells were washed twice with PBS before staining.
(§1) For staining, ProxUp basal medium was mixed with calcein (500 nM final concentration), EthD (6 μM final concentration), CellMask stain ([…]) and Hoechst 33342. Staining mixture was added to RPTEC and cells were incubated for 30 min in the dark at 37° C. and 5% CO2. Staining solution was removed, cells were washed with PBS once and ProxUp basal medium was added. Cells were immediately imaged after staining. Images were obtained by epifluorescence microscopy at 37° C., using a Leica CTR6000 microscope. For quantification 3 wells/condition were prepared and 3 images/well were taken. For preliminary adhesion experiments images were taken with a 10× objective, for the imaging assay 20× objective images were taken.
Multichannel images were saved as individual channel images in 8-bit tiff format. For analysis Hoechst channel images were thresholded using the triangle threshold. Touching nuclei of the binary image were further segmented using the watershed algorithm with the distance transform of the binary image as input and local maxima thereof as seeds.
For EthD channel images, high level of background noise was observed, potentially as a result of fluorescence of the CellMask stain bleeding through. […] A fixed minimum threshold was set at 60. Watershed segmentation similar to the Hoechst channel was performed to segment touching objects. For the calcein channel images adaptive thresholding by triangle thresholding achieved good detection of CaP deposits, which was validated by visual comparison to brightfield channel images. For compound experiments, an additional upper threshold was set to the minimum threshold of the pos.ctrl images for the respective experiment. Thereby an overly insensitive threshold in images with a high amount of CaP deposition was circumvented. The sum of foreground pixels of the binary image was used to calculate the total area of CaP deposits. The skimage label algorithm was used to label touching foreground regions.
To segment images to single cells the CellMask channel image was first binarized by adaptive thresholding, using a blocksize of 35, followed by median filtering. Binary erosion was performed to shrink the outlines. A version of watershed algorithm was used to segment the whole image into single cells. To this end, the distance transform of the binary erosion image was used as input image and seeds were set to the local maxima of the Hoechst channel image. While this protocol allowed for an approximation of single cell morphology, further improvements of both analytical and experimental staining procedure would be necessary to achieve more accurate results.
Additionally, texture features of calcein and CellMask channel images were extracted. Grey level co-occurrence matrices were calculated using one set offset of 5 pixel and an angle of 90°. Here, the use of larger offsets could improve the detection of changes in large-scale features, e.g. CaP clustering sites. […]

[2] = tested on: RPTEC/TERT 1 human proximal tubule cells; test: CaP-induced CaOx crystallization on RPTEC monolayers; format: cell-based; conditions: 1.2 mM oxalate, 4 h
Method: For the assessment of CaP-induced CaOx crystallization, after 24 h of incubation, Ca/P spiked medium was removed, and cells were washed twice with PBS. Subsequently, medium containing 1.2 mM oxalate and compound was added to each well. After 4 h of incubation at 37° C. and 5% CO2 treatment was removed, and cells washed once with PBS before staining.
as §1

[3] = 7 mM phosphate, 5 mM calcium, 24 h

## COCCOCCO[C@@H]1C(OP(=O)(O)O)[C@H](OCCOCCOC)[C@@H](OP(=O)(O)O)C(OP(=O)(O)O)[C@H]1OP(=O)(O)O (stereo partly shown) [(OEG2)2-IP4]
[1]; [3]
  concentration achieving complete inhibition of CaP adhesion: 50 µM
  concentration down to which CaP adhesion was drastically reduced: 12.5 µM
[1]; 6-50 μM compound, 5/7 mM Ca/P
  single cell area compared to the positive ctrl: dose-dependently reduced
  single cell solidity compared to the positive ctrl: increased
  total cell count/field of view compared to the positive ctrl: increased
[1]; 6-50 μM compound, 5/7 mM Ca/P, EthD staining
  number of dead cells compared to the positive ctrl: dose-dependently reduced
[1]; 6-50 μM compound, 24 h
  image feature profile vs positive ctrl (+5/7 mM Ca/P) and negative ctrl: dose-dependent reversal
[1]; 6 and 13 μM compound, 5/7 mM Ca/P, calcein staining
  total CaP area compared to the positive ctrl: reduction
[2]; 100 μM compound
  calcium oxalate dihydrate (COD) in CaP-induced CaOx crystallization: almost entirely abolished
[2]; after 24 h Ca/P, dose-dependent
  CaOx crystal form in CaP-induced CaOx crystallization: revert CaOx crystallization from calcium oxalate monohydrate (COM), the predominant most stable form, to calcium oxalate dihydrate (COD)
